Results taken from patent US20230093099A1, “COMPOUNDS AND METHODS OF TREATING CANCERS” (CULLGEN (SHANGHAI), INC., priority 2019, published 2023).

The molecules below were run on RS4;11 cells (assay: Cell viability assay (CellTiter-Glo) in RS4;11 cells). Conditions: Homo sapiens, 72 h; RS4;11 cells; cell viability, 3 days, CellTiter-Glo; read-out: IC50.
Assay type: cell-based
Protocol: Specific exemplary heterobifunctional compounds were first characterized using cell viability assays. RS4;11 ALL cells were treated with bifunctional degraders for three days. The IC50 values ranged from 2 nM to over 10 uM.
MV4;11, RS4;11, Kasumi-1, HEL and other cells were treated with NVP-BSK805, TG101209 or selected degraders for 3 days at indicated concentrations following a 3-fold serial dilution.
HEL, RS4;11, MV4;11, Kasumi-1 and other cells were cultured at 37° C. with 5% CO2 in RPMI 1640 or DMEM Medium supplemented with 10% fetal bovine serum. Cells were authenticated using the short tandem repeat (STR) assays. Mycoplasma test results were negative.
Cells were seeded at a density of 5000 cells per well in 96-well assay plates and treated with test compounds following a 8-point or 12-point 3-fold serial dilution. Three days later, cell viability was determined using the CellTiter-Glo assay kit according to the manufacturer's instructions. The dose-response curves were determined and IC50 values were calculated using the GraphPad Prism software following a nonlinear regression (least squares fit) method.

| Structure (SMILES) | IC50 |
| --- | --- |
| Cc1cnc(Nc2ccc(N3CCN(C(=O)CCOCCC(=O)N[C@H](C(=O)N4C[C@H](O)C[C@H]4C(=O)NCc4ccc(-c5scnc5C)cc4)C(C)(C)C)CC3)cc2)nc1Nc1cccc(S(=O)(=O)NC(C)(C)C)c1 [JA-031, (2S,4R)-1-((S)-2-(3-(3-(4-(4-((4-((3-(N-(tert-Butyl)sulfamoyl)phenyl)amino)-5-methylpyrimidin-2-yl)amino)phenyl)piperazin-1-yl)-3-oxopropoxy)propanamido)-3,3-dimethylbutanoyl)-4-hydroxy-N-(4-(4-methylthiazol-5-yl)benzyl)pyrrolidine-2-carboxamide] | > 10 µM |
| Cc1ncsc1-c1ccc(CNC(=O)[C@@H]2C[C@@H](O)CN2C(=O)[C@@H](NC(=O)COCCOCCOCC(=O)N2CCC(n3cc(-c4cnc5cccc(-c6cc(F)c(CN7CCOCC7)c(F)c6)c5n4)cn3)CC2)C(C)(C)C)cc1 [JA-053, (2S,4R)-1-[(2S)-2-[[2-[2-[2-[2-[4-[4-[8-[3,5-Difluoro-4-(morpholinomethyl)phenyl]quinoxalin-2-yl]pyrazol-1-yl]-1-piperidyl]-2-oxo-ethoxy]ethoxy]ethoxy]acetyl]amino]-3,3-dimethyl-butanoyl]-4-hydroxy-N-[[4-(4-methylthiazol-5-yl)phenyl]methyl]pyrrolidine-2-carboxamide] | > 10 µM |
| O=C1CCC(n2c(=O)n(CCCCCCC(=O)N3CCC(n4cc(-c5cnc6cccc(-c7cc(F)c(CN8CCOCC8)c(F)c7)c6n5)cn4)CC3)c3ccccc32)C(=O)N1 (centres unmarked) [JA-279, 3-(3-(7-(4-(4-(8-(3,5-Difluoro-4-(morpholinomethyl)phenyl)quinoxalin-2-yl)-1H-pyrazol-1-yl)piperidin-1-yl)-7-oxoheptyl)-2-oxo-2,3-dihydro-1H-benzo[d]imidazol-1-yl)piperidine-2,6-dione] | > 0.5 µM |
| O=C1CCC(N2C(=O)c3cccc(NCC(=O)N4CCC(n5cc(-c6cnc7cccc(-c8cc(F)c(CN9CCOCC9)c(F)c8)c7n6)cn5)CC4)c3C2=O)C(=O)N1 (centres unmarked) [JA-002, 4-[[2-[4-[4-[8-[3,5-Difluoro-4-(morpholinomethyl)phenyl]quinoxalin-2-yl]pyrazol-1-yl]-1-piperidyl]-2-oxo-ethyl]amino]-2-(2,6-dioxo-3-piperidyl)isoindoline-1,3-dione] | 5.44 µM |
| Cc1cnc(Nc2ccc(N3CCN(CC(=O)NCC(=O)N[C@H](C(=O)N4C[C@H](O)C[C@H]4C(=O)NCc4ccc(-c5scnc5C)cc4)C(C)(C)C)CC3)cc2)nc1Nc1cccc(S(=O)(=O)NC(C)(C)C)c1 [JA-097, (2S,4R)-1-((S)-2-(2-(2-(4-(4-((4-((3-(N-(tert-Butyl)sulfamoyl)phenyl)amino)-5-methylpyrimidin-2-yl)amino)phenyl)piperazin-1-yl)acetamido)acetamido)-3,3-dimethylbutanoyl)-4-hydroxy-N-(4-(4-methylthiazol-5-yl)benzyl)pyrrolidine-2-carboxamide] | > 10 µM |
| Cc1ncsc1-c1ccc(CNC(=O)[C@@H]2C[C@@H](O)CN2C(=O)[C@@H](NC(=O)CNC(=O)CN2CCC(n3cc(-c4cnc5cccc(-c6cc(F)c(CN7CCOCC7)c(F)c6)c5n4)cn3)CC2)C(C)(C)C)cc1 [JA-158, (2S,4R)-1-((S)-2-(2-(2-(4-(4-(8-(3,5-Difluoro-4-(morpholinomethyl)phenyl)quinoxalin-2-yl)-1H-pyrazol-1-yl)piperidin-1-yl)acetamido)acetamido)-3,3-dimethylbutanoyl)-4-hydroxy-N-(4-(4-methylthiazol-5-yl)benzyl)pyrrolidine-2-carboxamide] | > 10 µM |
| Cc1cnc(Nc2ccc(N3CCN(C(=O)CCCCCCCCCC(=O)N[C@H](C(=O)N4C[C@H](O)C[C@H]4C(=O)NCc4ccc(-c5scnc5C)cc4)C(C)(C)C)CC3)cc2)nc1Nc1cccc(S(=O)(=O)NC(C)(C)C)c1 [JA-029, (2S,4R)-1-((S)-2-(11-(4-(4-((4-((3-(N-(tert-Butyl)sulfamoyl)phenyl)amino)-5-methylpyrimidin-2-yl)amino)phenyl)piperazin-1-yl)-11-oxoundecanamido)-3,3-dimethylbutanoyl)-4-hydroxy-N-(4-(4-methylthiazol-5-yl)benzyl)pyrrolidine-2-carboxamide] | > 10 µM |
| O=C(CN1CCC(n2cc(-c3cnc4cccc(-c5cc(F)c(CN6CCOCC6)c(F)c5)c4n3)cn2)CC1)NCCOCCOCCOCCNc1cccc2c1C(=O)N(C1CCC(=O)NC1=O)C2=O (centres unmarked) [JA-141, 2-[4-[4-[8-[3,5-Difluoro-4-(morpholinomethyl)phenyl]quinoxalin-2-yl]pyrazol-1-yl]-1-piperidyl]-N-[2-[2-[2-[2-[[2-(2,6-dioxo-3-piperidyl)-1,3-dioxo-isoindolin-4-yl]amino]ethoxy]ethoxy]ethoxy]ethyl]acetamide] | > 10 µM |
| O=C1CCC(N2C(=O)c3ccc(CCCCCCC(=O)N4CCC(n5cc(-c6cnc7cccc(-c8cc(F)c(CN9CCOCC9)c(F)c8)c7n6)cn5)CC4)cc3C2=O)C(=O)N1 (centres unmarked) [JA-257, 5-(7-(4-(4-(8-(3,5-Difluoro-4-(morpholinomethyl)phenyl)quinoxalin-2-yl)-1H-pyrazol-1-yl)piperidin-1-yl)-7-oxoheptyl)-2-(2,6-dioxopiperidin-3-yl)isoindoline-1,3-dione] | 0.137 µM |

The next lines start with the values.

| IC50 | Structure (SMILES) |
| --- | --- |
| 1.59 µM | Cc1cnc(Nc2ccc(N3CCN(C(=O)CCOCCOCCOCCNc4ccc5c(c4)C(=O)N(C4CCC(=O)NC4=O)C5=O)CC3)cc2)nc1Nc1cccc(S(=O)(=O)NC(C)(C)C)c1 (centres unmarked) [JA-234, N-(tert-butyl)-3-((2-((4-(4-(3-(2-(2-(2-((2-(2,6-dioxopiperidin-3-yl)-1,3-dioxoisoindolin-5-yl)amino)ethoxy)ethoxy)ethoxy)propanoyl)piperazin-1-yl)phenyl)amino)-5-methylpyrimidin-4-yl)amino)benzenesulfonamide] |
| > 10 µM | O=C(CN1CCC(n2cc(-c3cnc4cccc(-c5cc(F)c(CN6CCOCC6)c(F)c5)c4n3)cn2)CC1)NCCCCCCCCNc1cccc2c1C(=O)N(C1CCC(=O)NC1=O)C2=O (centres unmarked) [JA-149, 2-(4-(4-(8-(3,5-Difluoro-4-(morpholinomethyl)phenyl)quinoxalin-2-yl)-1H-pyrazol-1-yl)piperidin-1-yl)-N-(8-((2-(2,6-dioxopiperidin-3-yl)-1,3-dioxoisoindolin-4-yl)amino)octyl)acetamide] |
| 0.743 µM | Cc1cnc(Nc2ccc(N3CCN(CC(=O)NCCOCCOCCOCCNc4ccc5c(c4)C(=O)N(C4CCC(=O)NC4=O)C5=O)CC3)cc2)nc1Nc1cccc(S(=O)(=O)NC(C)(C)C)c1 (centres unmarked) [JA-239, 2-(4-(4-((4-((3-(N-(tert-butyl)sulfamoyl)phenyl)amino)-5-methylpyrimidin-2-yl)amino)phenyl)piperazin-1-yl)-N-(2-(2-(2-(2-((2-(2,6-dioxopiperidin-3-yl)-1,3-dioxoisoindolin-5-yl)amino)ethoxy)ethoxy)ethoxy)ethyl)acetamide] |
| > 10 µM | CS(=O)(=O)c1ccc(-c2cccc3nc(Nc4ccc(N5CCN(CC(=O)NCCCCCNc6ccc7c(c6)C(=O)N(C6CCC(=O)NC6=O)C7=O)CC5)cc4)nn23)cc1 (centres unmarked) [JA-204, N-(5-((2-(2,6-Dioxopiperidin-3-yl)-1,3-dioxoisoindolin-5-yl)amino)pentyl)-2-(4-(4-((5-(4-(methylsulfonyl)phenyl)-[1,2,4]triazolo[1,5-a]pyridin-2-yl)amino)phenyl)piperazin-1-yl)acetamide] |
| 4.59 µM | Cc1ncsc1-c1ccc(CNC(=O)[C@@H]2C[C@@H](O)CN2C(=O)[C@@H](NC(=O)COCCOCC(=O)N2CCN(c3ccc(Nc4nc5cccc(-c6ccc(S(C)(=O)=O)cc6)n5n4)cc3)CC2)C(C)(C)C)cc1 [JA-073, (2S,4R)-1-((S)-3,3-Dimethyl-2-(2-(2-(2-(4-(4-((5-(4-(methylsulfonyl)phenyl)-[1,2,4]triazolo[1,5-a]pyridin-2-yl)amino)phenyl)piperazin-1-yl)-2-oxoethoxy)ethoxy)acetamido)butanoyl)-4-hydroxy-N-(4-(4-methylthiazol-5-yl)benzyl)pyrrolidine-2-carboxamide] |
| 0.573 µM | CS(=O)(=O)c1ccc(-c2cccc3nc(Nc4ccc(N5CCN(C(=O)CCOCCOCCOCCOCCNc6cccc7c6C(=O)N(C6CCC(=O)NC6=O)C7=O)CC5)cc4)nn23)cc1 (centres unmarked) [JA-080, 2-(2,6-Dioxo-piperidin-3-yl)-4-{2-[2-(2-{2-[3-(4-{4-[5-(4-methanesulfonyl-phenyl)-[1,2,4]triazolo[1,5-a]pyridin-2-ylamino]-phenyl}-piperazin-1-yl)-3-oxo-propoxy]-ethoxy}-ethoxy)-ethoxy]-ethylamino}-isoindole-1,3-dione] |
| > 10 µM | Cc1ncsc1-c1ccc(CNC(=O)[C@@H]2C[C@@H](O)CN2C(=O)[C@@H](NC(=O)CCCCC(=O)N2CCN(c3ccc(Nc4nc5cccc(-c6ccc(S(C)(=O)=O)cc6)n5n4)cc3)CC2)C(C)(C)C)cc1 [JA-074, (2S,4R)-1-((S)-3,3-Dimethyl-2-(6-(4-(4-((5-(4-(methylsulfonyl)phenyl)-[1,2,4]triazolo[1,5-a]pyridin-2-yl)amino)phenyl)piperazin-1-yl)-6-oxohexanamido)butanoyl)-4-hydroxy-N-(4-(4-methylthiazol-5-yl)benzyl)pyrrolidine-2-carboxamide] |
| 0.849 µM | Cc1cnc(Nc2ccc(N3CCN(C(=O)CCOCCOCCOCCOCCNc4ccc5c(c4)C(=O)N(C4CCC(=O)NC4=O)C5=O)CC3)cc2)nc1Nc1cccc(S(=O)(=O)NC(C)(C)C)c1 (centres unmarked) [JA-235, N-(tert-butyl)-3-((2-((4-(4-(1-((2-(2,6-dioxopiperidin-3-yl)-1,3-dioxoisoindolin-5-yl)amino)-3,6,9,12-tetraoxapentadecan-15-oyl)piperazin-1-yl)phenyl)amino)-5-methylpyrimidin-4-yl)amino)benzenesulfonamide] |
